# Experimental data as given in patent publication US20140213502A1, “CHEMICAL MODIFICATION OF APOLIPOPROTEIN MIMETIC PEPTIDES FOR THE PRODUCTION OF THERAPEUTIC AGENTS” (United States Department of Health and Human Services, priority 2011, published 2014).
# Read-outs that look alike come from different tables or passages of the source. Bridge positions count the residues as written; N and C are the ends. Square brackets hold non-standard residues; d marks the D form. Ends that are not written are not given here. Peptide text beside a SMILES is read from it. * marks the point of attachment. Myristoyl = CCCCCCCCCCCCCC(=O)*; R8 = C=CCCCCCC[C@@](C)(N)C(=O)O; S5 = C=CCCC[C@](C)(N)C(=O)O
# Experiments:
# [1] = Helicity by circular dichroism (CD) spectroscopy; format: physicochemical; details: for helical (helicity by CD spectroscopy): 24° C., aqueous buffer (sodium phosphate pH 7.4), peptide 0.1 mg/mL; for Helicity at 90° C.: heat denaturation, CD spectroscopy
# Method: FIG. 1 depicts the primary sequence and information regarding the biophysical characterization of illustrative peptides discussed herein. […] X1=(R)-a-(7′-octanyl)Ala; X2=(S)-a-(4′ pentenyl)Ala. […] (dotted line) A10, (solid line) S1A10, (dashed line) S2A10.
# FIG. 5 depicts helicity of peptides as measured by CD-spectroscopy at 24° C.: (dotted line) 5A, (dashed line) acyl-5A.
# The helical nature of the peptides was determined by circular dichroism spectroscopy. Peptides (0.1 mg/mL) in sodium phosphate buffer (pH 7.4) were loaded into a quartz cuvette (d=0.2 cm path length) and CD spectra from 185 to 240 nm were recorded on a Jasco J715 spectropolarimeter at 24° C. Data were normalized by calculating the mean residue ellipticity (θ). Peptide thermostability was monitored at 220 nm by increasing temperature from 10° to 90° C.
# pepsin = test: Susceptibility to proteolysis by pepsin, loss of intact peptide by MALDI-TOF MS; format: in vitro ADME; details: for remaining at 24 h, 500 μg/ml: pepsin (isolated protease), pepsin 0.5 μg/ml, pH 2, 37° C., read-out: peptide remaining after digestion
# Method: (§1) FIG. 2 depicts information relating to peptide susceptibility to proteolysis. Peptides […] and […] at a final concentration of 500 μg/ml were incubated for the indicated times with either pepsin (0.5 μg/ml) in 10% acetic acid (pH 2.0) buffer (Panel A) or with chymotrypsin (0.5 μg/ml) in 10 mM NH4HCO3 (pH 7.4) buffer (Panel B), and loss of intact peptide was monitored by MALDI-TOF MS. Results are expressed as normalized area under the curve measurements relative to three internal standards. […] Several potential pepsin and/or chymotrypsin cleavage sites are found within and outside the linker region of the peptides […] and […]. […] and […] (5 mg/ml) were diluted 10× with either 10% acetic acid (pH 2), containing pepsin (0.5 μg/ml final) or in 10 mM NH4HCO3 (pH 7), containing chymotrypsin (0.5 μg/ml final). After incubation at 37° C., aliquots at various time points were removed and dried on a MALDI Anchor Chip target at 45° C. MALDI standards (Bombesin, ACTH 1-17, ACTH 18-39, Somastatin 28, CHCA in 50% ACN, 0.1% TFA) and matrix were added sequentially and allowed to dry between additions. Samples were analyzed on a Bruker AutoFlex III (Bruker Daltonics) in positive ion reflectron mode. Relative protein concentrations were determined from areas under the curve, using the MALDI standards as calibrators.
# chymotrypsin = test: Susceptibility to proteolysis by chymotrypsin, loss of intact peptide by MALDI-TOF MS; format: in vitro ADME; details: for remaining at 24 h, 500 μg/ml: chymotrypsin (isolated protease), read-out: peptide remaining after digestion
# Method: as §1
# aortic atherosclerosis = test: Atherosclerosis progression in a mouse model, en face analysis of aorta; format: in vivo; details: apoE^hypx SR-BI Ko mice, 200 ug/mL in drinking water, high fat (21%) diet 2 weeks
# Method: FIG. 8 depicts the results of testing the peptide […] on atherosclerosis progression in a mouse model of atherosclerosis. To test the ability of the stapled peptide variant of the last helix of apoA-T containing the long linker, […], it was added to the drinking water (200 ug/mL) of apoE^hypx SR-BI Ko mice. The mice were fed a high fat (21%) diet for 2-weeks and examined for aortic atherosclerosis by en face analysis.
# [2] = format: physicochemical
# Method: FIG. 3 depicts Dimyristoyl phosphatidyl choline (DMPC) vesicle solubilization by the indicated peptides. Peptides A10, S1A10 and S2A10 at a final concentration of 33 μg/mL or phosphate buffer saline (PBS) was incubated with DMPC vehicles (200 μg/mL) and monitored for turbidity at 1 min. intervals.
# A phospholipid vesicle solubilization assay was undertaken to assess the ability of the peptides to act like detergents. Dimyristoyl phosphatidyl choline (DMPC) vesicles were prepared by resuspension of dried DMPC with PBS and vortexing for 5 min. Changes in light scattering upon peptide addition were monitored at 24° C. every minute for 1 h at 660 nm, with shaking in a Perkin Elmer plate reader.
# ABCA1 transporter = molecular target: T1, ABCA1 transporter (Homo sapiens, UniProt O95477); test: Cholesterol efflux, BHK cells stably transfected with human ABCA1; format: cell-based; details: 18 h
# T1 construct: expressed in transfected cells; host or cells: BHK cells
# Method: (§2) FIG. 4 depicts the results of testing the effect of the peptides on cholesterol efflux. Peptides A10, S1A10, S2A10, 5A at the indicated concentration were incubated with (Panel A) BHK control cells, (Panel B) ABC-A1 transfected BHK cells, (Panel C) ABC-G1 transfected BHK cells, and (Panel D) SR-B1 transfected BHK cells and monitored for cholesterol efflux. Percent of cholesterol efflux over 18 h is expressed as mean±SD of triplicate determinations.
# (§3) The ability of the three peptides and the bi-helical 5A peptide to promote cholesterol efflux was tested on BHK cells stably transfected with human ABCA1, ABCG1 or the human SRBI receptor (FIGS. 5 and 6). Cholesterol efflux studies were performed, as described previously. Control BHK cells and BHK cells stably transfected with either human ABCA1, ABCG1 or SR-BI were radiolabeled with [^3H] cholesterol for 24 h, washed and then treated with the indicated concentration of peptides for 18 h. Percent efflux was calculated by subtracting the radioactive counts in blank medium (alpha-minimal essential media plus 10 μg/ml bovine serum albumin) from the radioactive counts in the presence of a peptide and then dividing the result by the sum of the radioactive counts in the medium plus the cell fraction.
# ABCG1 transporter = molecular target: T2, ABCG1 transporter (Homo sapiens, UniProt P45844); test: Cholesterol efflux, ABCG1 transfected BHK cells; format: cell-based; details: 18 h, no phospholipid reconstitution
# T2 construct: expressed in transfected cells; host or cells: BHK cells
# Method: as §2, §3
# SR-BI receptor = molecular target: T3, SR-BI receptor (Homo sapiens, UniProt Q8WTV0); test: Cholesterol efflux, SR-BI transfected BHK cells; format: cell-based; details: 18 h, no phospholipid reconstitution
# T3 construct: expressed in transfected cells; host or cells: BHK cells
# T3 sequence (Q8WTV0 1-552): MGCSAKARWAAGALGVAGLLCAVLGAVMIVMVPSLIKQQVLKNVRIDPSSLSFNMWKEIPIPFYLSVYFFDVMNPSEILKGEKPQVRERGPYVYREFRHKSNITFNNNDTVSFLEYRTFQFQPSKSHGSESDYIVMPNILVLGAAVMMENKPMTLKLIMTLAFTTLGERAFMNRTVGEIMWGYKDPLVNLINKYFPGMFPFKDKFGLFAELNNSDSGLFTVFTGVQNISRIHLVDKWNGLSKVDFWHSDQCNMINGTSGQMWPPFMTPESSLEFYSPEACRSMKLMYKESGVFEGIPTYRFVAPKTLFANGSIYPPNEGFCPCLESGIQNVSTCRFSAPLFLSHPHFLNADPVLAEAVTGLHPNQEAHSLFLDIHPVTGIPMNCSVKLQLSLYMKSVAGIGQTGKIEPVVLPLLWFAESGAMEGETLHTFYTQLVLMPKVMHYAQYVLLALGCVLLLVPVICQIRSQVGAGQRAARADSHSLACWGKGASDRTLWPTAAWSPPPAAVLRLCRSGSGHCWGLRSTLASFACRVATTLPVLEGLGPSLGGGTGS
# Method: as §2, §3
# [3] = cited from earlier work
# [4] = Effect of acyl-5A on serum lipid profile of mice; format: in vivo; details: CS7BL/6 mice, 30 mg/kg intravenously in saline, relative to baseline
# Method: FIG. 7 depicts the results of testing acyl-5A on scrum lipid values in mice. Acyl-5A was injected intravenously in CS7BL/6 mice (n=4) at a dose of 30 mg/kg in saline, and serum was measured for total cholesterol (Panel A), cholesteryl esters (Panel B), and free cholesterol (Panel C) at the indicated, time points. Mean of results are expressed as % of baseline.
# In FIG. 7, the results of testing the effect of acyl-5A on the serum lipid profile of mice are shown.
# [5] = Oligomer formation in aqueous solution; format: physicochemical
# [6] = chymotrypsin 0.5 μg/ml, 10 mM NH4HCO3 (pH 7), 37° C.
# T1 sequence (O95477 whole entry): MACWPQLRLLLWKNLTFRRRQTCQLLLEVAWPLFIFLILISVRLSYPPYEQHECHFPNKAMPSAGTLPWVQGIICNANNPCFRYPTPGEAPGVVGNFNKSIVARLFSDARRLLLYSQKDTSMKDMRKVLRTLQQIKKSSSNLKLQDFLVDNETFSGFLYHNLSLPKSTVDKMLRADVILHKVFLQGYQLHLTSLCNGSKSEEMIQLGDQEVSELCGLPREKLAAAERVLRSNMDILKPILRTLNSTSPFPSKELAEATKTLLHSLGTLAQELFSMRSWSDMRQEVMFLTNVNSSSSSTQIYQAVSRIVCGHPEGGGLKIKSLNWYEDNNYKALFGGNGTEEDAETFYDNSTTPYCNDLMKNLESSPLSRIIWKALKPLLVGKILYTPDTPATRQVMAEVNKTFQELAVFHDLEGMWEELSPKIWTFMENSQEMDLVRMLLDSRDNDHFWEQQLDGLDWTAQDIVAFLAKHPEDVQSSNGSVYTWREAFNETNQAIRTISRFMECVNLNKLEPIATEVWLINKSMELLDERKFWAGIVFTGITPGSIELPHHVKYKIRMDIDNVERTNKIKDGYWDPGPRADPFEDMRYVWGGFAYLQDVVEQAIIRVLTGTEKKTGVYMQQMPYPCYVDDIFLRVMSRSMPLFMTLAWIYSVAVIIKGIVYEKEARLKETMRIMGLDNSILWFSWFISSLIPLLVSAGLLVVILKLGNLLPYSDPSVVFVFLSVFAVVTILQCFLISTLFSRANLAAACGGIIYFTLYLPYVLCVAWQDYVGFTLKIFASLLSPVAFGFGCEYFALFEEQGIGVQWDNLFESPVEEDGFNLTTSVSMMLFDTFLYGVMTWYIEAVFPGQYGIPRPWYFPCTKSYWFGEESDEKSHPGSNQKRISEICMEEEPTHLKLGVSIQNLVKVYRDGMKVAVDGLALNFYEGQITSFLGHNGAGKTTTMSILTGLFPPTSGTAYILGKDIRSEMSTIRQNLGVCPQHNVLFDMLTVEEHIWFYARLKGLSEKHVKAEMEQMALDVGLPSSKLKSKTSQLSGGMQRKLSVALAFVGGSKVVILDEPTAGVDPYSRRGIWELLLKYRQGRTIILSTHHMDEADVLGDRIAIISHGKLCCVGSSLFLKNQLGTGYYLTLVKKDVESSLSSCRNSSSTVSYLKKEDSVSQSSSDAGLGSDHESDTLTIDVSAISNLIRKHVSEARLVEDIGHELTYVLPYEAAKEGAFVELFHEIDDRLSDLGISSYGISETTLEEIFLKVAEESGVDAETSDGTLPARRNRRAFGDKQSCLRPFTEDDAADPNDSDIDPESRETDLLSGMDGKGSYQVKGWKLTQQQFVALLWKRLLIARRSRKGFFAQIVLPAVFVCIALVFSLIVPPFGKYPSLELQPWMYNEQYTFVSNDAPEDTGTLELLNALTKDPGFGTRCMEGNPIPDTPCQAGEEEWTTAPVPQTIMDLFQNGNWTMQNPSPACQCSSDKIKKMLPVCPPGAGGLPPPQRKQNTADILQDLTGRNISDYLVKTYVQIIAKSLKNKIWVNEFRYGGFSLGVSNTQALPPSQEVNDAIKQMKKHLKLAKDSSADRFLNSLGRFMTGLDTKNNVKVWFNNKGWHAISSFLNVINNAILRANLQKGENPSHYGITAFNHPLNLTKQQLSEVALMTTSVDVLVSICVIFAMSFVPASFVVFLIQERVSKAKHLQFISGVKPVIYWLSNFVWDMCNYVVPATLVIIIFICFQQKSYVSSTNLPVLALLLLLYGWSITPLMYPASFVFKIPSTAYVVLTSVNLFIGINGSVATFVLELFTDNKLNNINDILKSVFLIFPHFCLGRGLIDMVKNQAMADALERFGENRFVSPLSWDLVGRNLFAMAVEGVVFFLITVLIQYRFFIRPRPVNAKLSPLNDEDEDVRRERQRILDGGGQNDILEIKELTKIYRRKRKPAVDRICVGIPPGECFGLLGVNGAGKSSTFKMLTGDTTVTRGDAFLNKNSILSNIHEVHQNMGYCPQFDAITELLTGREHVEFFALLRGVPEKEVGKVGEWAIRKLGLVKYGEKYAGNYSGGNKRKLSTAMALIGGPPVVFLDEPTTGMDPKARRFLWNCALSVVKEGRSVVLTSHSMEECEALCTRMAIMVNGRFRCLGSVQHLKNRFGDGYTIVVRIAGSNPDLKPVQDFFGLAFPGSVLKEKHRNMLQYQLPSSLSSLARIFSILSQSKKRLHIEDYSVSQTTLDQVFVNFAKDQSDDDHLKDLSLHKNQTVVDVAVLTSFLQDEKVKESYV
compound,measurement,setting,value
CC(=O)N[C@H](C(=O)N[C@@H](CC(C)C)C(=O)N[C@@H](CCC(=O)O)C(=O)N[C@@H](CO)C(=O)N[C@@H](Cc1ccccc1)C(=O)N[C@@H](CCCCN)C(=O)N[C@H](C(=O)N[C@@H](CO)C(=O)N[C@]1(C)CCCCCCC=CCCCCCC[C@](C)(C(=O)N[C@@H](CCC(=O)O)C(=O)N[C@@H](CCC(=O)O)C(=O)N[C@@H](Cc2ccc(O)cc2)C(=O)N[C@H](C(=O)N[C@@H](CCCCN)C(=O)N[C@@H](CCCCN)C(=O)N[C@@H](CC(C)C)C(=O)N[C@@H](CC(N)=O)C(=O)N[C@H](C(=O)N[C@@H](CCC(N)=O)C(N)=O)[C@@H](C)O)[C@@H](C)O)NC(=O)[C@H](C)NC(=O)[C@H](CO)NC(=O)[C@H](CC(C)C)NC1=O)C(C)C)C(C)C [S1A10] (Ac-VLESFKVS[R8]LSA[R8]EEYTKKLNTQ-NH2; staple 9-13; N-terminus and C-terminus assumed),helical (helicity by CD spectroscopy),[1],62%
same,Helicity at 90° C.,[1],25%
same,"remaining at 24 h, 500 μg/ml",pepsin,0.4%
same,"remaining at 24 h, 500 μg/ml",chymotrypsin; [6],0.6%
CC(=O)N[C@H](C(=O)N[C@@H](CC(C)C)C(=O)N[C@@H](CCC(=O)O)C(=O)N[C@@H](CO)C(=O)N[C@@H](Cc1ccccc1)C(=O)N[C@@H](CCCCN)C(=O)N[C@H](C(=O)N[C@@H](CO)C(=O)N[C@@]1(C)CCCC=CCCCCCC[C@](C)(C(=O)N[C@H](C(=O)N[C@@H](CCCCN)C(=O)N[C@@H](CCCCN)C(=O)N[C@@H](CC(C)C)C(=O)N[C@@H](CC(N)=O)C(=O)N[C@H](C(=O)N[C@@H](CCC(N)=O)C(N)=O)[C@@H](C)O)[C@@H](C)O)NC(=O)[C@H](CCC(=O)O)NC(=O)[C@H](CCC(=O)O)NC(=O)[C@H](CC(C)C)NC(=O)[C@H](C)NC(=O)[C@H](CO)NC(=O)[C@H](CC(C)C)NC1=O)C(C)C)C(C)C [S2A10] (Ac-VLESFKVS[S5]LSALEE[R8]TKKLNTQ-NH2; staple 9-16; N-terminus and C-terminus assumed),helical (helicity by CD spectroscopy),[1],97%
same,Helicity at 90° C.,[1],48%
same,"remaining at 24 h, 500 μg/ml",pepsin,12.2%
same,resistance to proteolysis by chymotrypsin (in words),chymotrypsin; [6],less sensitive to chymotrypsin than S1A10
same,"remaining at 24 h, 500 μg/ml",chymotrypsin; [6],3.8%
same,decrease in % area coverage by atherosclerotic plaques,aortic atherosclerosis,> 2 fold
"Ac-VLESFKVSFLSALEEYTKKLNTQ-NH2 [A10, reference compound]",helical (helicity by CD spectroscopy),[1],17%
same,Helicity at 90° C.,[1],11%
same,"remaining at 0.5 h, 500 μg/ml","pepsin; isolated enzyme pepsin, pH 2",< 5%
same,"remaining at 0.5 h, 500 μg/ml","chymotrypsin; isolated enzyme chymotrypsin, pH 7",< 5%
same,"DMPC vesicle solubilization (turbidity, in words)",[2],"some initial solubilization of the DMPC vesicles, but at later time points, the turbidity of the solution increased"
same,cholesterol efflux by the ABCA1 transporter (in words),ABCA1 transporter,ineffective
same,cholesterol efflux (in words),ABCG1 transporter,ineffective
same,cholesterol efflux (in words),SR-BI receptor,ineffective
apoA-I: the main protein in High Density Lipoprotein (HDL),helical,[3]; associated with lipids,over 80%
same,helical,[3]; lipid-free state,about 20%
myrstic acid GGGDWLKAFYDKVAEKLKEAFPDWAKAAYDKAAEKAKEAA (Myristoyl-GGGDWLKAFYDKVAEKLKEAFPDWAKAAYDKAAEKAKEAA) [acyl-5A],helical (helicity by CD spectroscopy),[1],36.7%
same,increase in serum total cholesterol,[4],approximately 20%
same,increase in serum free cholesterol,[4]; found primarily on HDL,> 2 fold
same,peptides per complex (oligomer),[5],approximately 10 peptides per complex
